The results in this text go back to ChEMBL document CHEMBL1201862, “PubChem BioAssay data set” (2004).

In one test the target is T1, Cytochrome P450 1A2 (Homo sapiens, UniProt P05177).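 Further: PubChem cytochrome P450 panel assay, CYP1A2 panel member.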
T1 sequence (P05177 whole entry): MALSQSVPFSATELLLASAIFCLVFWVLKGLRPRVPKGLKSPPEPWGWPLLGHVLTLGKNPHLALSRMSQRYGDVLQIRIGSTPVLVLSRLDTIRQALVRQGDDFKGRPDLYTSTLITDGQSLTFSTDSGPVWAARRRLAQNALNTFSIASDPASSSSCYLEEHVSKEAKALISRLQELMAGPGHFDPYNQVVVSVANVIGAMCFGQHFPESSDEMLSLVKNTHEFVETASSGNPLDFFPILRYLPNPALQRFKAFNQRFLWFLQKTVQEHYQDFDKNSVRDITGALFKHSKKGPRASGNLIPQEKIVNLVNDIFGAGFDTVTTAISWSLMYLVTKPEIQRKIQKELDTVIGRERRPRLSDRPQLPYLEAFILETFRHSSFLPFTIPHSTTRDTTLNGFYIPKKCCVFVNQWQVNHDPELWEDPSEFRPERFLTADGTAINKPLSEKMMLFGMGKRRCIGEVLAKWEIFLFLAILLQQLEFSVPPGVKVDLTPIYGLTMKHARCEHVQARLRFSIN

The nature of test [1]: Luminescence Cell-Based Dose Retest to Confirm Inhibitors of Cancer Stem Cells. [Related pubchem assays (depositor defined):AID2717, AID2721]. In kind it is functional. The settings on record: Homo sapiens.
Test [2] is described as follows: Trypanosoma cruzi growth suppression in host cells – NIH3T3 host cells, beta-gal luminescence, confirmation (AID 2044).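 Further: intracellular parasites grown in NIH/3T3 mouse fibroblasts as host cells; luminescent beta-galactosidase reporter signal from transgenic T. cruzi replicating inside host cells; inhibitors lower the luminescence signal.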 Format: functional, cell-based.
A short description of test [3]: NIH3T3 cell viability loss – ATP luminescence, mouse fibroblasts, counter-screen, dose response (AID 2010).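 Further: cells exposed to compound for about 90 hours before reading.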 Format: functional, cell-based. For orientation: A counterscreen serves to expose hits that act by an unwanted route or on another target.
Test [4] has as its system Streptococcus sp. 'group A'. The test can be described thus: Streptococcus pyogenes SK(-)GAS viability under kanamycin – luminescence, BacTiterGlo, confirmation, counter-screen for streptokinase expression inhibitor project, dose response (AID 1900). In kind it is functional, organism-based.
The target in another test is T2, Streptokinase A (Streptococcus pyogenes serotype M1, UniProt P10520).
T2 sequence (P10520 whole entry): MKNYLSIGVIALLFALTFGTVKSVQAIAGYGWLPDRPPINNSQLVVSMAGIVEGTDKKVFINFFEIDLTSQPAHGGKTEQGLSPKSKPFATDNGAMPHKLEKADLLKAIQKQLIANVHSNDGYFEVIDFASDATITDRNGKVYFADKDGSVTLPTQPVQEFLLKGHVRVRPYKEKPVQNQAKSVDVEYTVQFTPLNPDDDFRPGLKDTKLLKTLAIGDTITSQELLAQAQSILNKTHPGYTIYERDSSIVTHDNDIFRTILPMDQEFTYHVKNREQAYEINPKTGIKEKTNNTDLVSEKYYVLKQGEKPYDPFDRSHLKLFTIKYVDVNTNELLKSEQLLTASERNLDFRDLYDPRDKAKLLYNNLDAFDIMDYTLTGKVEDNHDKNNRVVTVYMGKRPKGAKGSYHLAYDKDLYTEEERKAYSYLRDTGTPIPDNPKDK
Description: viability-normalized secreted streptokinase activity reduction – plasminogen activation absorbance, OD405, dose response (AID 1914).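 Further: secreted streptokinase activity via plasminogen activation per viability signal from cell pellet.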 Format: functional, Streptococcus pyogenes M1 GAS.

A further test concerns Streptococcus. The test can be described thus: GAS UMAA2166 growth inhibition – luminescence, BacTiterGlo, counter-screen for streptokinase expression inhibitor project, dose response (AID 1915).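 Further: potency for reduction of bacterial viability or growth.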 Format: functional, organism-based.
Test [5] in a line: viability of uninfected HEp-2 cells – cell-based, HTS, cytotoxicity control for RSV inhibitor project, dose response (AID 2410). Particulars: human respiratory syncytial virus. In kind it is functional.
Another test deals with INS1. The test can be described thus: INS-1E survival protection against cytokine death – cell-based, luminescence, retest, dose response (AID 449756).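 Further: cell death triggered by IL-1 beta plus TNF-alpha plus IFN-gamma mixture; protective hits raise ATP signal compared with cytokine alone wells.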 In kind it is functional. Particulars: Rattus norvegicus.

The structures appear in SMILES notation. The source made the active and inactive calls. For most assays here, no stated cut-off is given here; in the data, actives have a measured EC50 and inactives only a lower limit.

In general, AC50 refers to the midpoint of the concentration-response curve, whichever way the signal moves. Consider `O=C(c1ccco1)N1CCC2(CCCN(Cc3ccncc3)C2)CC1`, for which, on Cytochrome P450 1A2, the concentration at half-maximal activity (AC50) is 15.8 µM (inconclusive). In the case of `COc1ccc(Br)cc1C(=O)Nc1cccc(C)c1`, the AC50 in test [1] is > 195 µM (inactive). What is called EC50 is the concentration needed to bring the measured effect to its halfway point. In the case of `CN(C)S(=O)(=O)Oc1ccsc1C(=O)Nc1cccc(Cl)c1Cl`, the EC50 in test [2] is 3.47 µM (active); in test [3], > 60 µM (not active).

With `CNc1nc(OC)nc(N(C#N)CN2C(=O)c3ccccc3S2(=O)=O)n1`, the concentration for a half-maximal effect (EC50) (in test [4]; at Streptokinase A; in the test with Streptococcus) was > 150 µM (not active) throughout. What is called CC50 is the concentration giving 50% cytotoxicity. Consider `FCCCOc1ccc(-c2nccc(-c3ccc(F)cc3)n2)cc1`, for which the CC50 in test [5] is 26 µM (active). Consider `COc1ccc(NC(=O)/C=C/c2cccc(F)c2)cn1`, for which, in test [5], the CC50 is 34.7 µM (active). Consider `CCNC(=O)COC(=O)/C=C/c1c(C)nn(Cc2cccc(OC)c2)c1Cl`, for which the CC50 in [5] is > 50 µM (active). Same read-out and setting: for `COc1ccc(/C=C2\SC(=S)N(NS(=O)(=O)c3ccccc3)C2=O)c(OC)c1` the value was 35.4 µM (active).

With `N#CCCn1c(=O)c(-c2ccccc2)nc2cnc(Nc3ccccc3)nc21`, at Cytochrome P450 1A2, the AC50 is 0.794 µM (inconclusive).

For the compound `O=C(NNC(=S)NC(=O)c1ccccc1)c1cccc([N+](=O)[O-])c1`, the EC50 in test [4] was 3.85 µM (active); in the test with Streptococcus, 8.75 µM (active). For `Cc1cc(C(=O)CSc2nnc(N)s2)c(C)n1CCc1ccc(Cl)cc1`, the CC50 in test [5] is 17.1 µM (active). With `CN(C)CCCNS(=O)(=O)c1ccc(NC2CCCCCC2)c([N+](=O)[O-])c1`, the AC50 in the test on INS1 was 6.22 µM (active).

For the compound `Cc1c(CCC(=O)O)c(=O)oc2cc3occ(-c4ccc(Cl)cc4)c3cc12`, the EC50 in [4] is 7.96 µM (active); on Streptokinase A, > 150 µM (not active); in the test with Streptococcus, > 150 µM (not active). As to `Cc1cccc(-n2c(N)c(-c3nc4ccccc4n3C)c3nc4ccccc4nc32)c1`, the 50% effective concentration (EC50) is 3.66 µM (active) in test [4], > 150 µM (not active) at Streptokinase A and > 150 µM (not active) in the test on Streptococcus. For `O=C(Nc1nc2cc3c(cc2s1)OCO3)C1CC1`, the EC50 in [2] was 1.3 µM (active); in test [3], > 60 µM (not active). For the compound `Cc1ccc(C)c(S(=O)(=O)NC(C)C(=O)Nc2ccc(-c3nc4ccccc4s3)cc2)c1` (stereo unspecified), the AC50 on Cytochrome P450 1A2 is 15.8 µM (inconclusive). For the compound `Cc1cc(C)nc(NC(=N)NCCc2c[nH]c3ccccc23)n1`, the EC50 in test [4] is 7.95 µM (active); on Streptokinase A it was > 150 µM (not active); in the test on Streptococcus, > 150 µM (not active). Regarding `Cc1sc2[nH]c(-c3ccccn3)nc(=O)c2c1-c1ccccc1`, at Streptokinase A, the EC50 was > 150 µM (not active).

As for `CCN(CC)S(=O)(=O)c1ccc(Cl)c(C(=O)Nc2ccc(Cl)cc2[N+](=O)[O-])c1`, the AC50 in the test on INS1 was 7.83 µM (active). As to `Cc1ccc(C)c(OCCCCN2CCNCC2)c1C`, in test [1], the half-maximal activity concentration (AC50) is 1.03 µM (active). Regarding `Cc1nc(O)c(C#N)c(Nc2ccc(Cl)cc2)n1`, in test [5], the CC50 was 32.3 µM (active).

On to `CCOCCCN=C(S)N1CCCN(c2nc3cc(C)cc(C)c3cc2C#N)CC1`, for which the 50% cytotoxic concentration (CC50) in test [5] is 31.4 µM (active). Regarding `CN1[C@@H]2CC[C@H]1CC(OC(=O)c1cc(Cl)cc(Cl)c1)C2` (stereo partly specified), the AC50 at Cytochrome P450 1A2 is 31.6 µM (inconclusive). Turning to `Cc1ccc(C)c(N2CCN(C(=O)c3ccc4c(c3)c(C)c(C)n4C)CC2)c1`, the half-maximal activity concentration (AC50) in test [1] was 6.01 µM (active). As to `CCOc1ccc(CNCCCSc2ncccn2)cc1`, the figures for the EC50 in test [2] and in test [3] were 0.909 µM (active) and 9.74 µM (active), respectively.

`COc1ccc2nc(NC(=S)NC(=O)c3ccco3)sc2c1`: in test [5], the CC50 is > 50 µM (active). On to `COc1ccc(C(=O)N/N=C(\C)Cn2nc([N+](=O)[O-])cc2C)cc1`, for which the concentration at half-maximal activity (AC50) on Cytochrome P450 1A2 was 20 µM (inconclusive). As to `Cc1cc(C)nc(NC(=O)/C=C/c2ccc3c(c2)OCO3)c1`, the AC50 in test [1] is 1.91 µM (active).

Consider `COCC(C)n1c(SCc2ccc(OC)c(F)c2)nc2ccccc2c1=O` (stereo unspecified), for which the EC50 is 2.17 µM (active) in test [2] and > 60 µM (not active) in test [3].

`Cc1ccc(-c2cc(C(F)F)nc(NCc3cccnc3)n2)cc1`: the EC50 in test [2] was 3.05 µM (active); in test [3], > 60 µM (not active). Consider `O=C(NCCc1ccccn1)c1ccc(OC2CCN(Cc3ccccn3)CC2)cc1`, for which the EC50 (in test [4]; on Streptokinase A; in the test with Streptococcus) was > 150 µM (not active) each time. For the compound `C[C@H](CO)N1C[C@H](C)[C@@H](CN(C)S(=O)(=O)c2ccccc2)Oc2ccc(NC(=O)Nc3ccc(C(F)(F)F)cc3)cc2C1=O`, the concentration at half-maximal activity (AC50) in test [1] is 8.42 µM (active).

On to `O=C(c1cc2sccc2n1Cc1ccc(F)cc1)N1CCc2ccccc21`, for which, in test [5], the half-maximal cytotoxic concentration (CC50) is 36.2 µM (active). `COC(=O)NC(=S)Nc1ccc(Oc2ccc(Cl)cc2)c(Cl)c1`: the EC50 in test [2] is 2.41 µM (active); in [3] it was > 60 µM (not active).

As to `O=C(O)c1ccccc1NCn1c(=S)sc2ccccc21`, on Cytochrome P450 1A2, the half-maximal activity concentration (AC50) was 0.501 µM (inconclusive). For the compound `COc1cc([N+](=O)[O-])cc(/C=N/NC(=O)C(C)Nc2cccc(C)c2)c1O` (stereo unspecified), the values for the EC50 (in [4]; on Streptokinase A; with Streptococcus) were 10.9 µM (active), > 150 µM (not active) and > 150 µM (not active), respectively.

Turning to `COCc1cc(C)nc2sc(C(=O)NN)c(-n3cccc3)c12`, the half-maximal cytotoxic concentration (CC50) in test [5] was 14.3 µM (active). With `CC1CCN(c2ccc(NC(=O)c3ccc([N+](=O)[O-])o3)cc2)CC1`, the values for the concentration giving a half-maximal response (EC50) in [2] and in test [3] were > 16 µM (not active) and 4.41 µM (active), respectively. Also, the concentration at half-maximal activity (AC50) in the test with INS1 was 10.3 µM (active). For `CN(C)CC(C)(C)C/N=C/c1c(O)[nH]c2ccccc12`, the results for the 50% effective concentration (EC50) in [2] and in test [3] were 0.152 µM (active) and > 30 µM (not active), respectively. As to `Cc1ccc(CN(Cc2cccnc2)C(=O)CN2C(=O)COc3ccccc32)o1`, the 50% effective concentration (EC50) in [2] is 0.276 µM (active); in test [3], > 60 µM (not active). Take `CCCOc1ccc2c3c(c(=O)oc2c1OCCC)CCCC3`: the half-maximal cytotoxic concentration (CC50) in [5] was 23.5 µM (active). Besides, in the test on INS1, the AC50 is 13.7 µM (active). `CCOC(=O)C1(S(=O)(=O)c2ccc(Cl)cc2)CCN(Cc2ccc(Cl)cc2)CC1`: the half-maximal activity concentration (AC50) at Cytochrome P450 1A2 was 31.6 µM (inconclusive). Turning to `CCC(C)Sc1ccc(-c2nc3ccc(C)cn3c2NC2CCCCC2)cc1` (stereo unspecified), the half-maximal effective concentration (EC50) was 0.885 µM (active) in test [2] and > 60 µM (not active) in [3]. With `O=C(CCn1ccnc1)Nc1ccc2ccccc2c1`, the EC50 in test [2] was 1.63 µM (active); in test [3], > 60 µM (not active). For `COc1cc(C(=O)NCCCN(C)C)ccc1OCC(=O)Nc1cccc(C(F)(F)F)c1` the same measures were 1.23 µM (active) and > 60 µM (not active). `CC(C)[C@H](NC(=O)N1CC(=O)Nc2ccccc21)C(=O)N[C@@H](Cc1ccccc1)C(=O)O`: the EC50 (in test [4]; on Streptokinase A; in the test with Streptococcus) was > 150 µM (not active) throughout. `COc1cc(NC(=O)Nc2cccc(Cl)c2)c(OC)cc1NC(=O)CN1CCCCC1`: the half-maximal activity concentration (AC50) in test [1] is 4.44 µM (active). As for `CCOC(=O)CC(=O)CSc1nc(N)c(C#N)c(-c2ccc(Cl)cc2)c1C#N`, the CC50 in test [5] is 23.6 µM (active). As to `NS(=O)(=O)c1ccc(NCc2cnc3ccccc3c2)cc1`, the half-maximal activity concentration (AC50) at Cytochrome P450 1A2 was 1.58 µM (inconclusive).

`COc1ccc(OC)c(NC(=O)c2cccc(Cn3cc(Br)c([N+](=O)[O-])n3)c2)c1`: the EC50 in test [2] was 0.794 µM (active); in test [3] it was 9.07 µM (active).

Consider `O=C(Nc1ccccc1-c1nc2ccccc2[nH]1)c1ccc(S(=O)(=O)N2CCCCC2)cc1`, for which the AC50 on Cytochrome P450 1A2 is 3.55 µM (inconclusive).
